For assay [1], the target named is human DPP1 enzyme (Homo sapiens (Human), UniProt P53634). Briefly: Human DPP1 enzyme IC50 assay. The format is biochemical. To be noted: recombinant human DPP1, H-Gly-Arg-AMC substrate 400 μM. In a few lines:
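Fluorogenic readout (350/450 nm, every 5 min over 90 min, 37°C) of H-Gly-Arg-AMC cleavage at 400 μM final substrate. Compounds met activated DPP1 first for a 10-min 37°C pre-incubation in MES buffer pH 6.0 with DTT, 1% DMSO final. Four-parameter sigmoidal fit gave IC50.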

Assay [2] addresses DPP1 in HL-60 cells (Homo sapiens (Human), UniProt P53634). Briefly: DPP1 Cell IC50 assay. The assay is classed as cell-based. To be noted: H-Gly-Phe-AFC substrate, 60 min pre-incubation. Here is the method:
Media was changed every three to four days and cells were not allowed to exceed 1×10^6 cells per mL. Prior to assay, cells were collected by centrifugation at 500 rcf for 3 minutes, resuspended in PBS and counted. Cells were diluted in PBS to a concentration of 5×10^5 live cells per mL and transferred to black 96-well plates for assay, 60 μL per well. Test articles were diluted in PBS plus 0.5% DMSO, and 20 μL was added to each assay well. Compound was allowed to pre-incubate with cells with gentle shaking at 100 rpm for 60 minutes at 37° C. in a cell culture incubator maintained at 5% CO2, after which 20 μL of 500 μM H-Gly-Phe-AFC substrate (MP Biomedicals; Solon, OH) was added to each well. Plates were returned to the incubator with shaking at 100 rpm for 30 minutes, after which fluorescence was measured at Excitation/Emission 400/505 nm. % Inhibition was calculated from RFU values compared to control cell wells that received only PBS plus 0.5% DMSO. IC50 values for each compound were calculated via the XLFit (IDBS Version 5.3.1.3) Add-On to Microsoft Excel using the four parameter fit equation y=(A+((B-A)/(1+((C/x)^D)))), which appears as equation number 205 (4 Parameter Logistic Model or Sigmoidal Dose-Response Model) in XLFit.

The term IC50 denotes the concentration that inhibits the measured activity by half.

Sequence of DPP1 in HL-60 cells (P53634 25-134): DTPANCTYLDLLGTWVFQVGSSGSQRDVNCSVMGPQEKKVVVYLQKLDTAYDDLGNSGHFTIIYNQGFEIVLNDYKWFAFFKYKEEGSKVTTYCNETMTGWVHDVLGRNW
Sequence of DPP1 in HL-60 cells (P53634 231-394): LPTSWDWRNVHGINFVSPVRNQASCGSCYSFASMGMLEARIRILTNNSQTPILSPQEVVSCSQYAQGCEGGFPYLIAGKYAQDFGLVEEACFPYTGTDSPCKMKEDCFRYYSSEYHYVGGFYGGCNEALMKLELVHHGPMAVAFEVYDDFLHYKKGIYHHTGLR
Sequence of DPP1 in HL-60 cells (P53634 395-463): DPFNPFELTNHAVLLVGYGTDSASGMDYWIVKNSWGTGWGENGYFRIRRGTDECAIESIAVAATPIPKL
Sequence of human DPP1 enzyme (P53634 25-134): as the sequence (P53634 25-134) above
Sequence of human DPP1 enzyme (P53634 231-394): as the sequence (P53634 231-394) above
Sequence of human DPP1 enzyme (P53634 395-463): as the sequence (P53634 395-463) above

Regarding `Cn1ccc(CC(N)C(=O)N[C@H](C#N)Cc2ccc(-c3ccc4oc(=O)n(C)c4c3)cc2)c1` (stereo partly drawn) [Compound 254, 2-amino-N-[(1S)-1-cyano-2-[4-(3-methyl-2-oxo-1,3-benzoxazol-5-yl)phenyl]ethyl]-3-(1-methylpyrrol-3-yl)propanamide], the IC50 in assay [1] was 5 to 15 nM; in assay [2], at least 2.5 nM.

As to `N#Cc1ccc(-c2ccc(C[C@H](C#N)NC(=O)C3(N)CCOCC3)c(I)c2)cc1` [Compound 249, 4-amino-N-[(1R)-1-cyano-2-{4′-cyano-3-iodo-[1,1′-biphenyl]-4-yl}ethyl]oxane-4-carboxamide], the concentration for half-maximal inhibition (IC50) was at least 15 nM in assay [1] and at least 2.5 nM in assay [2].

Regarding `C[C@@H](NCc1cccs1)C(=O)N[C@H](C#N)Cc1ccc(-c2ccc3oc(=O)n(C)c3c2)cc1` [Compound 232, (2R)—N-[(1S)-1-cyano-2-[4-(3-methyl-2-oxo-1,3-benzoxazol-5-yl)phenyl]ethyl]-2-[(thiophen-2-ylmethyl)amino]propanamide], the IC50 is at least 15 nM in assay [1] and at least 2.5 nM in assay [2].

Turning to `Cn1c(=O)oc2ccc(-c3ccc(C[C@@H](C#N)NC(=O)C(N)Cc4ccccc4O)cc3)cc21` (stereo partly drawn) [Compound 203, 2-amino-N-[(1S)-1-cyano-2-[4-(3-methyl-2-oxo-1,3-benzoxazol-5-yl)phenyl]ethyl]-3-(2-hydroxyphenyl)propanamide], the IC50 is 5 to 15 nM in assay [1] and at least 2.5 nM in assay [2].

Take `CN(C)C[C@H](O)C(=O)N[C@H](C#N)Cc1ccc(-c2ccc3cnn(C4CCN(C5COC5)CC4)c3c2)cc1F` [Compound 287, (2S)—N-[(1S)-1-cyano-2-(2-fluoro-4-{1-[1-(oxetan-3-yl)piperidin-4-yl]indazol-6-yl}phenyl)ethyl]-3-(dimethylamino)-2-hydroxypropanamide]: the IC50 was 5 to 15 nM in assay [1] and at least 2.5 nM in assay [2].

With `Cn1c(=O)oc2ccc(-c3ccc(C[C@@H](C#N)NC(=O)C(N)Cc4cccnc4O)cc3)cc21` (stereo partly drawn) [Compound 199, 2-amino-N-[(1S)-1-cyano-2-[4-(3-methyl-2-oxo-1,3-benzoxazol-5-yl)phenyl]ethyl]-3-(2-hydroxypyridin-3-yl)propanamide], the values for the half-maximal inhibitory concentration (IC50) in assay [1] and in assay [2] were at least 15 nM and at least 2.5 nM, respectively.

With `C[C@H](O)[C@](C)(N)C(=O)N[C@H](C#N)Cc1ccc(-c2ccc3oc(=O)n(C)c3c2)cc1` [Compound 171B, (2S,3S)-2-amino-N-[(1S)-1-cyano-2-[4-(3-methyl-2-oxo-1,3-benzoxazol-5-yl)phenyl]ethyl]-3-hydroxy-2-methylbutanamide], the IC50 in assay [1] was at least 15 nM; in assay [2] it was at least 2.5 nM.

On to `Cn1c(=O)oc2ccc(-c3ccc(CC(C#N)NC(=O)C4(N)CCCC45CC5)c(F)c3)cc21` (stereo in doubt) [Compound 273A, (4S)-4-amino-N-[(1S)-1-cyano-2-[2-fluoro-4-(3-methyl-2-oxo-1,3-benzoxazol-5-yl)phenyl]ethyl]spiro[2.4]heptane-4-carboxamide], for which the IC50 in assay [1] was at least 15 nM; in assay [2], at least 2.5 nM.

For `CN(C)C[C@H](O)C(=O)N[C@H](C#N)Cc1ccc(-c2ccc3c(c2)C2(CCCN(C)C2)C(=O)N3C)cc1` (stereo partly drawn) [Compound 145, (2S)—N-[(1S)-1-cyano-2-(4-{1,1′-dimethyl-2-oxospiro[indole-3,3′-piperidin]-5-yl}phenyl)ethyl]-3-(dimethylamino)-2-hydroxypropanamide], the IC50 was at least 15 nM in assay [1] and 1 to 2.5 nM in assay [2].

As for `Cn1c(=O)oc2ccc(-c3ccc(C[C@@H](C#N)NC(=O)[C@@H](N)Cc4cccnc4)cc3)cc21` [Compound 202, (S)-2-amino-N—((S)-1-cyano-2-(4-(3-methyl-2-oxo-2,3-dihydrobenzo[d]oxazol-5-yl)phenyl)ethyl)-3-(pyridin-3-yl)propanamide], the IC50 is 5 to 15 nM in assay [1] and at least 2.5 nM in assay [2].

As for `Cn1c(=O)oc2ccc(-c3ccc(C[C@@H](C#N)NC(=O)C(N)Cc4cncs4)cc3)cc21` (stereo partly drawn) [Compound 201, 2-amino-N-[(1S)-1-cyano-2-[4-(3-methyl-2-oxo-1,3-benzoxazol-5-yl)phenyl]ethyl]-3-(1,3-thiazol-5-yl)propanamide], the IC50 in assay [1] is at least 15 nM; in assay [2], at least 2.5 nM.

As for `CO[C@@H](CN(C)C)C(=O)N[C@H](C#N)Cc1ccc(-c2ccc3cnn(C4CCN(C5COC5)CC4)c3c2)cc1F` [Compound 288, (2S)—N-[(1S)-1-cyano-2-(2-fluoro-4-{1-[1-(oxetan-3-yl)piperidin-4-yl]indazol-6-yl}phenyl)ethyl]-3-(dimethylamino)-2-methoxypropanamide], the values for the IC50 in assay [1] and in assay [2] were 5 to 15 nM and 1 to 2.5 nM, respectively.

Consider `Cn1c(=O)oc2ccc(-c3ccc(C[C@@H](C#N)NC(=O)[C@@H](N)Cc4cn[nH]c4)cc3)cc21` [Compound 214, (2S)-2-amino-N-[(1S)-1-cyano-2-[4-(3-methyl-2-oxo-1,3-benzoxazol-5-yl)phenyl]ethyl]-3-(1H-pyrazol-4-yl)propanamide], for which the 50% inhibitory concentration (IC50) in assay [1] is at least 15 nM; in assay [2], at least 2.5 nM.

For the molecule `CCN1C(=O)Cc2ccc(-c3ccc(C[C@@H](C#N)NC(=O)[C@](C)(N)C4CCCC4)c(F)c3)cc21` [Compound 264B, (2R)-2-amino-N-[(1S)-1-cyano-2-[4-(1-ethyl-2-oxo-3H-indol-6-yl)-2-fluorophenyl]ethyl]-2-cyclopentylpropanamide], the IC50 in assay [1] was at most 5 nM; in assay [2], 1 to 2.5 nM.

Consider `CNC[C@H](O)C(=O)N[C@H](C#N)Cc1ccc(-c2ccc3oc(=O)n(C)c3c2)cc1` [Compound 111, (2S)—N-[(1S)-1-cyano-2-[4-(3-methyl-2-oxo-1,3-benzoxazol-5-yl)phenyl]ethyl]-2-hydroxy-3-(methylamino)propanamide], for which the half-inhibitory concentration (IC50) was at least 15 nM in assay [1] and at least 2.5 nM in assay [2].

On to `Cn1c(=O)oc2ccc(-c3ccc(C[C@@H](C#N)NC(=O)[C@@H](N)[C@H]4CCc5ccccc54)cc3)cc21` [Compound 207, (S)-2-amino-N—((S)-1-cyano-2-(4-(3-methyl-2-oxo-2,3-dihydrobenzo[d]oxazol-5-yl)phenyl)ethyl)-2-((S)-2,3-dihydro-1H-inden-1-yl)acetamide], for which the values for the IC50 in assay [1] and in assay [2] were at least 15 nM and at least 2.5 nM, respectively.

As for `COCCN(C)CCn1c(=O)oc2ccc(-c3ccc(C[C@@H](C#N)NC(=O)[C@](C)(N)C4CCC4)c(F)c3)cc21` [Compound 270B, (2R)-2-amino-N-[(1S)-1-cyano-2-[2-fluoro-4-(3-{2-[(2-methoxyethyl)(methyl)amino]ethyl}-2-oxo-1,3-benzoxazol-5-yl)phenyl]ethyl]-2-cyclobutylpropanamide], the concentration for half-maximal inhibition (IC50) in assay [1] is at most 5 nM; in assay [2] it was 1 to 2.5 nM.

Consider `Cc1cn2cc(-c3ccc(C[C@@H](C#N)NC(=O)[C@@](C)(N)C4CCC4)c(F)c3)cc2c(C)n1` [Compound 272B, (S)-2-amino-N—((S)-1-cyano-2-(4-(1,3-dimethylpyrrolo[1,2-a]pyrazin-7-yl)-2-fluorophenyl)ethyl)-2-cyclobutylpropanamide], for which the figures for the 50% inhibitory concentration (IC50) in assay [1] and in assay [2] were 5 to 15 nM and 1 to 2.5 nM, respectively.

Take `CO[C@@H](CN(C)C)C(=O)N[C@H](C#N)Cc1ccc(-c2ccc3cnn(C4CCN(C)CC4)c3c2)cc1F` [Compound 286, (S)—N—((S)-1-cyano-2-(2-fluoro-4-(1-(1-methylpiperidin-4-yl)-1H-indazol-6-yl)phenyl)ethyl)-3-(dimethylamino)-2-methoxypropanamide]: the IC50 in assay [1] was 5 to 15 nM; in assay [2], at least 2.5 nM.

The record behind these values is patent publication US20260008758A1, “LINEAR DIPEPTIDYL PEPTIDASE 1 INHIBITORS AND USES THEREOF” (Insmed Incorporated, priority 2024, published 2026).
